According to patent publication US20210008018A1, “DEUTERATED ANALOGS OF D-BETA-HYDROXYBUTYRIC ACID AND USES THEREOF” (Concert Pharmaceuticals, Inc., priority 2018, published 2021):

How the values were obtained:
[1] = molecular target: β-hydroxybutyrate dehydrogenase (Paucimonas lemoignei, UniProt A0A4R3I0R9); assay: Metabolic stability using D-β-hydroxybutyrate dehydrogenase (NADH formation, Km/Vmax); details: Pseudomonas lemoignei, pH 7.8
Experimental: (§1) Materials: β-Hydroxybutyrate Dehydrogenase from Pseudomonas lemoignei, nicotinamide adenine dinucleotide sodium salt (NAD), β-nicotinamide adenine dinucleotide, reduced dipotassium salt (NADH) and Trizma Base were purchased from Sigma-Aldrich.
(§2) Determination of Metabolic Stability of Compounds of the Invention Using D-β-hydroxybutyrate Dehydrogenase: 100 mM Tris pH 7.8 was prepared for assessing catalytic activity and as diluent to form corresponding solutions. Enzyme solution was prepared by dissolving lyophilized β-hydroxybutyrate dehydrogenase from Pseudomonas lemoignei in 100 mM Tris pH 7.8 to a final concentration of 200 Units/mL. The enzyme working stock solution (2 Units/mL) was prepared by dilution of stock solution (200 Units/mL) with 100 mM Tris pH 7.8 buffer. 30 mM NAD stock solution was prepared by dissolving NAD in 100 mM Tris pH 7.8 buffer. […] Working stock solutions of test compounds were prepared over the concentration range of 1 to 40 mM by appropriate dilutions in 100 mM Tris pH 7.8 buffer. 10 mM analytical standard stock solution were prepared by dissolving NADH in 100 mM Tris pH 7.8. Analytical standards were prepared over the concentration range of 0.05 to 1.5 mM by appropriate dilutions in 100 mM Tris pH 7.8. Enzymatic assays were conducted by aliquoting 40 μL of working test compound stock solution, 6 μL of enzyme working stock solution, 178 μL 100 mM Tris pH 7.8 into 96-well white clear bottom plates. The enzymatic assay was initiated by adding 16 μL of 30 mM NAD. The reaction was incubated at 37° C. The progress of each reaction was monitored over 15 minutes by measuring absorbance at […] of all wells every minute using a Perkin Elmer Enspire Multimode plate reader. Blank wells were prepared to subtract background. NADH formation was quantified using NADH analytical standard curve on same 96-well plate used to monitor enzyme activity. All reactions were conducted in triplicate.
(§3) The activity was determined by monitoring the rate of conversion of NAD to NADH by change in absorbance at 340 nm. The appropriate background was subtracted for each concentration and compound investigated and NADH concentration formed was calculated using NADH standard curve. The initial rates (v) for NADH formation as a function of initial test compound concentration (C) to derive Km and Vmax values by non-linear regression using Michaelis-Menten equation using GraphPad Prism 7 for Windows (version 7.03).
(§4) Difference between Vmax, Km and catalytic efficiency (Vmax/Km) for each compound was assessed using unpaired t-test with statistical significance using Holm-Sidak method with α=0.05. The unpaired t-test values were calculated using GraphPad Prism 7 for Windows (version 7.03).
(§5) Intrinsic clearance (CLint) and half-life (t1/2) values were calculated for each test compound using the following equations.

[2] = molecular target: β-hydroxybutyrate dehydrogenase from Pseudomonas lemoignei (Paucimonas lemoignei, UniProt A0A4R3I0R9); assay: as above; details: for CLint Ratio (NCE/PCE): NCE = Compound 100, 102 or 202, PCE = protio DBHB; for T1/2 Δ (%): [(deuterated species)-(nondeuterated species)](100)/(nondeuterated species); for ^DV: deuterium isotope effect on Vmax versus D-β-hydroxybutyric acid; for ^D(V/K): deuterium isotope effect on Vmax/Km versus D-β-hydroxybutyric acid; for CLint: intrinsic clearance calculated from Vmax and Km; for half-life: b-hydroxybutyrate dehydrogenase, pH 7.8; for Vmax: compound as substrate, NADH formation, Michaelis-Menten non-linear regression, 100 mM Tris pH 7.8
β-hydroxybutyrate dehydrogenase from Pseudomonas lemoignei, sequence (A0A4R3I0R9 entry or part of it): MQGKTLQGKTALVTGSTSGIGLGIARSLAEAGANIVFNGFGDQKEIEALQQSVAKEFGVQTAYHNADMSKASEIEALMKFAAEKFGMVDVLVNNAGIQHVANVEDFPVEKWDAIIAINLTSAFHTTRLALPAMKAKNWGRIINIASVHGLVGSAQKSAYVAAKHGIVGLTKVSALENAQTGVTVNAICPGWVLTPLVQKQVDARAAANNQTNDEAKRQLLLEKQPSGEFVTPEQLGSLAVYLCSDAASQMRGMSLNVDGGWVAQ
Experimental: as §1, §2, §3, §4, §5

[3] = using Vmax/Km to predict clearance, vs D-β-hydroxybutyric acid, 0.167 mM to 6.7 mM
[4] = vs D-β-hydroxybutyric acid, D-β-Hydroxybutyrate Dehydrogenase Assay

β-hydroxybutyrate dehydrogenase, sequence (A0A4R3I0R9 entry or part of it): as above

Row | Compound | half-life [1] | CLint Ratio (NCE/PCE) [2] | T1/2 Δ (%) [2] | ^DV [2] | ^D(V/K) [2] | CLint [2] | clearance predicted to be reduced by, compared to D-β-hydroxybutyric acid [2, 3] | increase in half-life (T1/2) [2, 4] | half-life [2] | Vmax ([2]; 0.167 mM to 6.7 mM) | clearance predicted to be increased by, compared to D-β-hydroxybutyric acid [2, 3] | decrease in half-life (T1/2) [2, 4]
1 | [2H][C@](C)(O)CC(=O)O [Compound 100, (R)-3-Hydroxybutanoic-3-d1 Acid] | 36.4 min | 0.7 | 40.2% | 1.1 | 1.4 | 0.0190 mL/min | 30% | 40% |  |  |  | 
2 | [2H]C([2H])([2H])[C@@]([2H])(O)CC(=O)O [Compound 102, (R)-3-hydroxybutanoic-3,4,4,4-d4 Acid] |  | 0.5 | 114% | 1.0 | 2.1 | 0.0125 mL/min | 50% | 114% | 55.7 min | 0.0213 µmol/mL/min |  | 
3 | [2H]C([2H])([2H])[C@@H](O)CC(=O)O [Compound 202, (R)-3-hydroxybutanoic-4,4,4-d3 Acid] |  | 2.0 | −48.7% | 0.7 | 0.5 | 0.0520 mL/min |  |  | 13.3 min | 0.0330 µmol/mL/min | 100% | ~49%
4 | C[C@@H](O)CC(=O)O [DBHB, D-β-hydroxybutyric acid, reference compound] | 26 min |  |  |  |  | 0.0267 mL/min |  |  |  |  |  | 
